Results: US9314510B2, “Human laminin α2 chain LG3 domain and active peptides promoting cell adhesion, spreading, migration, and neurite outgrowth” (SNU R&DB Foundation, priority 2011, dated 2016)
Ends that are not written are not given here.

B1: rLG3: recombinant His6-tagged human laminin α2 chain LG3 domain, amino acids 2537 to 2745 (protein, listed as Homo sapiens)
chain: VELSPVPIDVGTEINLSFSTKNESGIILLGSGGTPAPPRRKRRQTGQAYYVILLNRGRLEVHLSTGARTMRKIVIRPEPNLFHDGREHSVHVERTRGIFTVQVDENRRYMQNLTVEQPIEVKKLFVGGAPPEFQPSPLRNIPPFEGCIWNLVINSVPMDFARPVSFKNADIGRCAHQKLREDEDGAAPAEIVIQPEPVPTPAFPTPTPV
modifications: His6 tag

Columns and labels:
[1] = test system: normal human epidermal keratinocytes (NHEK); experiment: Cell adhesion to Ln2-LG3-P2-coated plates, NHEK; type: cell-based; settings: NHEK at passage 2, 62.5 μg/mL, 1 h
Experimental: Normal human epidermal keratinocytes (NHEK) isolated from epidermal tissue of normal human epidermal skin were cultured in keratinocyte growth medium (KGM, manufactured by Clonetics, San Diego, Calif.). Cells at passage 2 were used for the following experiments.

PC12 cells [2] = experiment: Cell adhesion assay on coated plates (crystal violet, absorbance 570 nm); type: cell-based, rat; settings: 1 h, serum-free; for cell adhesion: PC12 cells on coated plates, laminin 5 μg/mL, rLG proteins 25 μg/mL, peptides 62.5 μg/mL (0 to 125 μg/mL in FIG. 2B)
Experimental: The cell adhesion assay was performed as described in a paper published previously by the present inventors (Kim, J. M., et al, Exp. Cell Res, 2005).
Specifically, 24-well culture plates (Nunc, Denmark) were coated with 5 μg/mL human placental laminin (Sigma-Aldrich, St. Louis, Mo.) or 25 μg/mL rLG domain proteins for 12 h at 4° C. The peptides were also coated on the plates by drying for 12 h at room temperature. The substrate-coated plates were blocked with 1% heat-inactivated bovine serum albumin (BSA) in PBS for 1 h at 37° C. and then washed with PBS.
The cells were trypsinized with trypsin/EDTA and resuspended in serum-free culture medium. The cells were added at a density of 2×10^5 cells/500 μL to each plate and incubated in serum-free culture medium for 1 h at 37° C. After incubation, unattached cells were removed by rinsing twice with PBS. The attached cells were fixed with 10% formalin for 15 min and then stained with 0.5% crystal violet for 1 h. Plates were gently washed with distilled water three times and dissolved with 2% SDS for 5 min. Absorbance was measured at 570 nm using a microplate reader (BioRad).
First, PC12 cells were cultured on plates coated with varying amounts of five kinds of Ln2-PG3 peptides and then cell adhesion was observed. The peptides were coated in concentrations ranging from 0 to 125 μg/mL on plates by drying them for 12 h at room temperature.
(§1) The present inventors compared the cellular activities of Ln2-LG3-P2 peptide to scrambled peptide (SEQ ID NO:20, NWEIRCIPGNPF) of Ln2-LG3-P2 peptide and Ln2-LG3-P1 peptide to Ln2-LG3-P5 peptide at a concentration of 62.5 μg/mL where the cell adhesion activity was the maximum. […] PC12 cells were cultured on plates which were coated in the same way for 3 h in serum-free medium and the cell spreading was observed.
(§2) Specifically, to observe cell adhesion, spreading, migration, and neurite outgrowth promotion, the methods described in Experimental examples <2-1> to <2-3> were used and PC12 cells were cultured on plates coated with laminin (5 μg/mL), rLG3 (25 μg/mL), and rLG3-M1 (25 μg/mL) and observed. To observe cell adhesion, PC12 cells were incubated on the coated plates for 1 h and to observe cell spreading, PC12 cells were incubated on the coated plates for 3 h. To observe cell migration, PC12 cells were incubated on the coated plates for […].
(§3) To measure cell adhesion, spreading, migration, and neurite outgrowth promotive activities of PC12 cells using the prepared synthetic peptides that are N- and C-terminal truncated or C-terminal added peptides of the Ln2-LG3-P2 peptide, peptides described in Table 1 were coated onto plates at 62.5 μg/mL and PC12 cells were seeded thereon.

PC12 cells [3] = experiment: Cell adhesion inhibition assay: peptide pretreatment, adhesion to rLG3-coated plates; type: cell-based, rat; settings: rLG3 25 μg/mL, 1 h
Experimental: Specifically, PC12 cells were pretreated with the Ln2-LG3-P2 peptide in concentrations of 0, 0.2, 0.4, 0.6, 0.8, 1.0, or 1.2 μg/mL for 10 min at room temperature and then cultured on plates coated with rLG3 (25 μg/mL) for 1 h in serum-free medium.
(§4) PC12 cells were pretreated with 500 μg/mL of Ln2-LG3-P1, Ln2-LG3-P2, Ln2-LG3-P3, Ln2-LG3-P4, Ln2-LG3-P5 and SP (scramble peptide) (SEQ ID NO:20) for 10 min at room temperature and then cultured on plates coated with rLG3 (25 μg/mL) in serum-free medium. To observe cell adhesion, PC12 cells were incubated on the coated plates for 1 h and to observe cell spreading, PC12 cells were incubated on the coated plates for 3 h. To observe cell migration, cells were seed into the upper chamber of transwell filters coated with rLG3 (25 μg/mL) and cultured for 24 h. Cell migration was quantified by counting the number of cells that had migrated through the filter.
Specifically, PC12 cells were pretreated with Ln2-LG2-P2 (500 μg/mL) and Ln2-LG3-P2A (500 μg/mL) and then, cell adhesion was observed on plates coated with rLG3 (25 μg/mL).

NIH/3T3 cells = experiment: Cell adhesion to Ln2-LG3-P2-coated plates, NIH/3T3; type: cell-based, mouse; settings: 62.5 μg/mL, 1 h
Description: The mouse embryo fibroblast cell line NIH/3T3 was purchased from the American Type Culture Collection (Manassas, Va.) and cultured in Dulbecco's modified Eagle's medium (DMEM) containing 10% FBS.

PC12 cells [4] = experiment: Inhibition of cell migration to rLG3 by peptide pretreatment; type: cell-based, rat; settings: PC12 cells pretreated with 500 μg/mL peptide, transwell coated with rLG3 25 μg/mL, 24 h
Experimental: as §4

PC12 cells [5] = experiment: Cell spreading assay on coated plates (cell surface area); type: cell-based, rat; settings: 3 h, laminin 5 μg/mL, rLG proteins 25 μg/mL, peptides 62.5 μg/mL
Experimental: To determine cell spreading assays, the cells cultured on plates coated with each rLG domain protein for 1 h or 3 h in Experimental example <2-1> were fixed with 10% formalin. Then, the fixed cells were stained with 0.05% crystal violet for 1 h and plates were gently washed with PBS three times. The surface area of cells was measured with Image-Pro plus software (Version 4.5; Media Cybernetics, Silver Spring, Md.).
as §1, §2, §3

PC12 cells [6] = experiment: Summary of cell adhesion, spreading, migration and neurite outgrowth promotive effects; type: cell-based, rat; settings: summary statement of the description
Experimental: as §3

Schwann cells = experiment: Schwann cell spreading on coated plates; type: cell-based, human; settings: plates coated with 62.5 μg/mL peptide, 3 h
Experimental: Schwann cells, nerve cells used in the present invention, were obtained from human skin-derived precursors by differentiating the cells toward the Schwann cell lineage for two weeks and identified by immunocytochemical markers specific to Schwann cells, such as S100D and glial fibrillary acidic protein (GFAP) (Biernaskie, J. A. et al., Nat. Protoc., 2006).
Schwann cells were cultured on plates which were coated in the same way for 3 h in serum-free medium and the cell spreading of Schwann cells was observed.

PC12 cells [7] = experiment: Neurite outgrowth assay; type: cell-based, rat; settings: PC12 cells on coated plates, serum-free, 24 h + 72 h
Experimental: Laminin, rLG domain protein, and the peptide were coated onto plates and cells were seeded on the plates in serum-free medium and incubated for 24 h. After changing with serum-free medium again, cells were further cultured for 72 h and neurite outgrowth was examined.

| Molecule | cell adhesion activity [1] | cell adhesion (PC12 cells [2]) | coating concentration at which cell adhesion activity reached the maximum level (PC12 cells [2]; PC12 cells) [µg/mL] | cell adhesion to rLG3 after peptide pretreatment (PC12 cells [3]; PC12 cells pretreated with 0 to 1.2 μg/mL peptide for 10 min) | inhibition of cell adhesion to rLG3 protein (PC12 cells [3]; PC12 cells pretreated with 500 μg/mL peptide) | cell adhesion activity (NIH/3T3 cells) | inhibition of cell migration to rLG3 protein (PC12 cells [4]) | cell spreading (PC12 cells [5]) | cell adhesion, spreading, migration, and neurite outgrowth promotive effects (PC12 cells [6]) | Schwann cell spreading (Schwann cells) | reduction of Schwann cell spreading compared to laminin (Schwann cells; laminin 5 μg/mL) | neurite outgrowth (PC12 cells [7]) |
| --- | --- | --- | --- | --- | --- | --- | --- | --- | --- | --- | --- | --- |
| RNIPPFEGCIWN (RNIPPFEGCIWN-NH2; listed as Homo sapiens) [Ln2-LG3-P2, 12-mer peptide, position 2675 to 2686 in human laminin α2 chain] | strong cell adhesion activity | promoted the cell adhesion | 62.5 | decreased in a dose-dependent manner | approximately 40% | strong cell adhesion activity | inhibited cell spreading and migration | comparable to that of rLG3 | occurred the most actively | substantially higher spreading than BSA or scrambled peptide | approximately 50% |  |
| laminin [reference compound] |  | promoted cell adhesion |  |  |  |  |  | promoted cell spreading |  |  |  |  |
| B1 |  | adhered to rLG1, rLG3, and rLG4 in a dose-dependent manner |  |  |  |  |  | induced cell spreading |  |  |  | supports cell adhesion, spreading, migration, and neurite outgrowth |
